Assay results reported in PubChem BioAssay (NCI).
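Each compound was tested at five concentrations against cells in 96-well plates for 48 hours. Abbreviation: GI50, concentration required for 50% inhibition of growth. The concentration for full growth arrest is given as TGI.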

What was measured:
Assay in all cases: NCI tumour cell line growth inhibition, 48 h
A549 NSCLC = system: A549 NSCLC
LOX IMVI melanoma = system: LOX IMVI melanoma
SK-MEL-28 melanoma = system: SK-MEL-28 melanoma
SK-MEL-5 melanoma = system: SK-MEL-5 melanoma
SNB-19 CNS = system: SNB-19 CNS
SNB-75 CNS = system: SNB-75 CNS
SR leukemia = system: SR leukemia
A498 renal = system: A498 renal
SF-268 CNS = system: SF-268 CNS
MCF7 breast = system: MCF7 breast

O=c1cc(-c2ccccc2)oc2cc(OCCCOc3ccc4c(=O)cc(-c5ccccc5)oc4c3)ccc12
TGI (A549 NSCLC): > 100 µM | TGI (LOX IMVI melanoma): > 100 µM | TGI (SK-MEL-28 melanoma): > 100 µM | TGI (SK-MEL-5 melanoma): > 100 µM | TGI (SNB-19 CNS): > 100 µM | TGI (SNB-75 CNS): > 100 µM | TGI (SR leukemia): > 100 µM

COc1ccc(S(=O)(=O)NNS(C)(=O)=O)cc1
TGI (A498 renal): > 100 µM | TGI (A549 NSCLC): > 100 µM | TGI (LOX IMVI melanoma): > 100 µM | TGI (SF-268 CNS): > 100 µM | TGI (SK-MEL-5 melanoma): > 100 µM | TGI (SNB-19 CNS): > 100 µM | TGI (SNB-75 CNS): > 100 µM | TGI (SR leukemia): > 100 µM

CN(C)c1nc(=Nc2ccc(N=c3nc(N(C)C)ss3)cc2)ss1
TGI (A498 renal): > 79.3 µM | TGI (A549 NSCLC): > 100 µM | TGI (LOX IMVI melanoma): > 67.9 µM | TGI (SF-268 CNS): 99.2 µM | TGI (SK-MEL-28 melanoma): 33.6 µM | TGI (SK-MEL-5 melanoma): > 61.2 µM | TGI (SNB-19 CNS): > 100 µM | TGI (SNB-75 CNS): > 100 µM | TGI (SR leukemia): 64.9 µM

C=C1C(=O)O[C@H]2[C@H]1CC/C(COC(=O)c1c[nH]c3ccccc13)=C\CC[C@@]1(C)O[C@@H]21
GI50 (A498 renal): 0.267 µM | TGI (A498 renal): 1.03 µM | GI50 (A549 NSCLC): 1.5 µM | TGI (A549 NSCLC): 3.3 µM | GI50 (LOX IMVI melanoma): 0.0471 µM | TGI (LOX IMVI melanoma): 0.312 µM | GI50 (SF-268 CNS): 0.294 µM | TGI (SF-268 CNS): 1.07 µM | GI50 (SK-MEL-28 melanoma): 0.367 µM | TGI (SK-MEL-28 melanoma): 1.41 µM | GI50 (SK-MEL-5 melanoma): 0.204 µM | TGI (SK-MEL-5 melanoma): 0.499 µM | GI50 (SNB-19 CNS): 1.3 µM | TGI (SNB-19 CNS): 2.91 µM | GI50 (SNB-75 CNS): 0.207 µM | TGI (SNB-75 CNS): 0.923 µM | GI50 (SR leukemia): 0.285 µM | TGI (SR leukemia): 1.33 µM

CCOC(=O)NC(=O)c1cn(CCCO)c(=O)[nH]c1=O
TGI (A498 renal): > 100 µM | TGI (A549 NSCLC): > 100 µM | TGI (LOX IMVI melanoma): > 100 µM | TGI (SF-268 CNS): > 100 µM | TGI (SK-MEL-28 melanoma): > 100 µM | TGI (SK-MEL-5 melanoma): > 100 µM | TGI (SNB-19 CNS): > 100 µM | TGI (SNB-75 CNS): > 100 µM

O=C(CSc1ccc(Cl)cc1)Nc1ccc(-c2nc3ccccc3s2)c(Cl)c1
GI50 (A498 renal): 1.98 µM | TGI (A498 renal): 6.34 µM | GI50 (A549 NSCLC): 5.84 µM | TGI (A549 NSCLC): > 100 µM | GI50 (LOX IMVI melanoma): 5.07 µM | TGI (LOX IMVI melanoma): > 100 µM | GI50 (MCF7 breast): 4.67 µM | TGI (MCF7 breast): 39.2 µM | GI50 (SF-268 CNS): 3.24 µM | TGI (SF-268 CNS): 22.4 µM | GI50 (SK-MEL-28 melanoma): 6.31 µM | TGI (SK-MEL-28 melanoma): 46.4 µM | GI50 (SK-MEL-5 melanoma): 10.4 µM | TGI (SK-MEL-5 melanoma): 23 µM | GI50 (SNB-19 CNS): 4.31 µM | TGI (SNB-19 CNS): 74.2 µM | GI50 (SNB-75 CNS): 29.1 µM | TGI (SNB-75 CNS): > 100 µM

CCOC(=O)c1cc2nc3ccccc3c(=O)n2c2ccccc12
TGI (A498 renal): > 10 µM | TGI (A549 NSCLC): > 10 µM | TGI (LOX IMVI melanoma): > 10 µM | TGI (MCF7 breast): > 10 µM | TGI (SF-268 CNS): > 10 µM | TGI (SK-MEL-28 melanoma): > 10 µM | TGI (SK-MEL-5 melanoma): > 10 µM | TGI (SNB-19 CNS): > 10 µM | TGI (SNB-75 CNS): > 10 µM

C/C(=N\NC(=S)NC(CCC(=O)O)C(=O)O)c1ccccn1 (stereo not given)
TGI (A498 renal): > 100 µM | TGI (A549 NSCLC): > 100 µM | TGI (LOX IMVI melanoma): > 100 µM | TGI (SF-268 CNS): > 100 µM | TGI (SK-MEL-28 melanoma): > 100 µM | TGI (SK-MEL-5 melanoma): > 100 µM | TGI (SNB-19 CNS): > 100 µM | TGI (SNB-75 CNS): > 100 µM | TGI (SR leukemia): > 100 µM

c1ccc(COc2cccc3ccc[n+](Cc4ccccc4)c23)cc1
TGI (A498 renal): 97.8 µM | TGI (A549 NSCLC): > 100 µM | TGI (SF-268 CNS): > 100 µM | TGI (SK-MEL-28 melanoma): 25.4 µM | TGI (SNB-19 CNS): > 100 µM | TGI (SNB-75 CNS): 19.4 µM

CCN1c2ccccc2C(C(SC)S(=O)(=O)c2ccc(C)cc2)c2c1[nH]c(=O)n(C)c2=O (stereo not given)
TGI (A498 renal): > 100 µM | TGI (A549 NSCLC): > 100 µM | TGI (LOX IMVI melanoma): > 100 µM | TGI (SF-268 CNS): > 100 µM | TGI (SK-MEL-28 melanoma): > 100 µM | TGI (SK-MEL-5 melanoma): > 100 µM | TGI (SNB-19 CNS): > 100 µM | TGI (SNB-75 CNS): 69.7 µM
